Experimental data: US20010049097A1 (priority 1999, published 2001)

Assays:
[1] = molecular target: T1, mutant T7 Y639F polymerase (Escherichia phage T7, UniProt P00573, Y639F); type: biochemical, T7 bacteriophage; conditions: for effect on nucleotide incorporation: reactions containing 4 rNTPs and no non-canonical nucleotides; for concentration found to increase rate of Y639RNAP-catalyzed transcript extension: more than one rNTP replaced by a non-canonical nucleoside triphosphate; for concentration in excess of which generally inhibitory of activity: reaction with 4 rNTPs and plasmid templates
T1 construct: made in house; host or cells: E. coli BL21 (protease-deficient strain), plasmid pDPT7
T1 sequence (P00573 whole entry Y639F): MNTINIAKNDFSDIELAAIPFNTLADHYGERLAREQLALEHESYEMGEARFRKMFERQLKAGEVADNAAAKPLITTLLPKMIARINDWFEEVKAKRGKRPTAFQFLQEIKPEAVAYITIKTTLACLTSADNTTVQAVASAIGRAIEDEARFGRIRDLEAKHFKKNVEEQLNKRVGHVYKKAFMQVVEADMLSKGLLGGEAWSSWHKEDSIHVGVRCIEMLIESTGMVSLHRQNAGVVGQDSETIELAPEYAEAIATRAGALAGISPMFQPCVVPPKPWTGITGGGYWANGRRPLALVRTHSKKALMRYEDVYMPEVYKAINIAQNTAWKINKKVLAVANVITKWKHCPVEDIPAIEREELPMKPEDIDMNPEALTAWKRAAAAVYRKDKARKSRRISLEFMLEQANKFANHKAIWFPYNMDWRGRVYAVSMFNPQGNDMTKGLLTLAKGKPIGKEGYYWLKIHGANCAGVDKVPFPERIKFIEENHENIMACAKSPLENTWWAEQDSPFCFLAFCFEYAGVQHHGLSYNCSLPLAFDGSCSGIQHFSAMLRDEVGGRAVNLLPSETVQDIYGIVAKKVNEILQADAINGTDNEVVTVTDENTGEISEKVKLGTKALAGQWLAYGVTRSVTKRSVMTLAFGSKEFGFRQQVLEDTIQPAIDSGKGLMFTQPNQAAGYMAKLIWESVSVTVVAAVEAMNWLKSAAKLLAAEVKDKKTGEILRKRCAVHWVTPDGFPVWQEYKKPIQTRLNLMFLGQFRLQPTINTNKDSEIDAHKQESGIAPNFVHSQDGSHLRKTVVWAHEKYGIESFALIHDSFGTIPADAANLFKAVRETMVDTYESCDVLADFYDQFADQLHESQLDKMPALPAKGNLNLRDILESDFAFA
Procedure: In general, transcription reaction mixtures comprised about 40 mM Tris-HCl or 40 mM Tris-Acetate pH 8.0, 5 mM DTT, 5-15 mM MgCl2, 0.1 mCi/ml of alpha-^32P GTP, and various combinations of rNTPs and dNTPs at initial concentrations of 0.5 mM and 1.0 mM, respectively. The reaction mixtures included supercoiled or PvuI-linearized pT75 DNA (10^−8 M) as the template and mutant T7 Y639F polymerase (10^−7 M). Reactions were typically conducted in 50 microliter reaction volumes and incubated at 37° C. Aliquots were removed after 5, 10, and 20 minutes of incubation and the reactions were quenched by adding a solution containing 95% formamide, 20 mM EDTA, 0.01% xylene cyanol. The reaction products were resolved by electrophoresis on denaturing gels containing 6% acrylamide, 0.6% bis-acrylamide, 6 M urea, 1×TBE. The gel was analyzed using a Molecular Dynamics Phosphorimager to determine the rates of incorporation of radioactive GTP into specific transcripts.
To evaluate the effect of A-form stabilizing compounds on polyamines on transcript extension by a mutant T7 RNAP, the activity of the RNAP was evaluated using standard transcription conditions (15 mM MgCl2, 40 mM Tris-HCl pH 8.0, 1 mM EDTA, and 5 mM DTT), or standard transcription reaction conditions plus varying concentrations of ethanol, methanol, trifuoro acteic acid, cobalt hexamine, spermine, or spermidine.
In addition to evaluating A-form stabilizing compounds, we examined the effects of varying the concentration of Mg^2+ and Mn^2+, substituting acetate for chloride as the main reaction counteranion, adding 0.1% tween-20, and adding pyrophosphatase.
With reference to FIG. 1A, reactions in lanes labeled ‘M’ were carried out with wild type polymerase, 4 rNTPs, and either Pvu I- or Hind III-restricted pT75 to generate RNA markers ˜579 or ˜59 bases in length, respectively. Values below each gel lane give the relative rates of synthesis of runoff or long (>˜600 base) transcripts on linearized or supercoiled templates, respectively, normalized to a value of 100 for the 4 rNTP reactions. FIG. 1A compares the relative activities of Y639F in typical polymerase reaction conditions (15 mM MgCl2, 40 mM Tris-HCl pH 8.0, 1 mM EDTA, and 5 mM DTT) and in a modified reaction mixture (40 mM Tris-acetate pH 8.0, 5 mM DTT, 1 mM EDTA, 10 mM Mg-acetate, 0.5 mM MnCl2, 8 mM spermidine, and 1 U/μl pyrophosphatase) in reactions having various combinations of rNTPs and dNTPs with supercoiled or linearized templates.
With reference to FIG. 1B, transcripts were synthesized using Hind III-cut pT75 as the template with 2′-NH2- or 2′-F NTPs as indicated replacing the corresponding rNTPs in the reaction. Reactions were conducted with 8 mM or 0 mM spermidine, as indicated. FIG. 1B compares the activity of Y639F in the presence or absence of spermidine, in reactions with 4 rNTPs or different combinations of rNTPs and 2′-F- or 2′-NH2-NTPs.

Y639F T7RNAP = Y639F T7RNAP (Escherichia phage T7, UniProt P00573, Y639F); conditions: 42 bp template
Sequence of Y639F T7RNAP (P00573 whole entry Y639F): as above
Procedure: A 42 base-pair synthetic template carrying a consensus T7 promoter was tested for its effect on Y639F T7RNAP activity by measuring the synthesis of 25 base runoff transcripts in reaction mixtures containing 10 mM MgCl2, 40 mM Tris pH 8.0, 1 mM EDTA, 5 mM DTT, 0.5 mM MnCl2 and either 3 dNTP+rGTP or 4 rNTP reactions (FIG. 2A). […] The polymerase and T7 promoter were included at concentrations of about 10^−7 M. Reaction products were subjected to electrophoresis on denaturing gels containing 20% acrylamide, 2% bis-acrylamide, 6 M urea, 1×TBE.

## CO[C@@H]1[C@H](O)[C@@H](COP(=O)(O)OP(=O)(O)OP(=O)(O)O)O[C@H]1n1cnc2c(=O)[nH]c(N)nc21 [2′-O-Me-GTP]
[1]; Hind-III linearized pT75, modified buffer, single rNTP replaced
  synthesis of 59 base runoff transcripts, lower than in reactions with 4 rNTPs: eliminated synthesis of runoff transcripts altogether

## N.N.N.N.N.N.[Cl-].[Cl-].[Cl-].[Co+3] [cobalt, cobalt hexamine]
[1]
  effect on nucleotide incorporation: inhibited

## CCO [ethanol]
[1]
  effect on nucleotide incorporation: inhibited

## CO [methanol]
[1]
  effect on nucleotide incorporation: inhibited

## NCCCCNCCCN [spermidine]
[1]
  concentration found to increase rate of Y639RNAP-catalyzed transcript extension: at least 8 mM
  concentration in excess of which generally inhibitory of activity: > 10 mM
  effect on nucleotide incorporation: minimal effects at low concentrations and were inhibitory at high concentrations

## NCCCNCCCCNCCCN [spermine]
[1]
  concentration found to increase rate of Y639RNAP-catalyzed transcript extension: at least 1.5 mM
  concentration in excess of which generally inhibitory of activity: > 1 mM
  effect on nucleotide incorporation: minimal effects at low concentrations and were inhibitory at high concentrations
[1]; plasmid pT75 template, all combinations of rNTPs and dNTPs
  concentration inhibiting transcription: ≥ 4 mM
[1]; reactions with non-canonical substrates (3 replaced), plasmid templates
  concentration optimum for stimulation of activity: 1 to 2 mM
Y639F T7RNAP; 1.6 mM spermine, 3 dNTPs
  runoff synthesis relative to 8 mM spermidine: 2 fold
Y639F T7RNAP; reactions with 3 dNTPs
  concentrations shown to be stimulatory: up to 13 mM

## O=C(O)C(F)(F)F [trifluoroacetic acid]
[1]
  effect on nucleotide incorporation: inhibited
